Assay: in vitro
Parameters: MTT cytotoxicity assay, absorbance 450 nm, normal cell line
Conditions: human, wi-38 cells; read-out: Cytotoxicity IC50 uM WI38
Method: 3.2.3. […] The remaining substances and tools were from either Sigma or Invitrogen. Before performing the MTT experiment, cells were seeded on a 96-well plate at a density of 1.2–1.8 10,000 cells/well in a volume of 100 μL complete growth media + 100 μL of the test substance each well. Multiwell plates are an excellent choice for using the MTT method, which is used to track in vitro cytotoxicity. Using cells in the log phase of growth and keeping the ultimate cell density around 10^6 cells/cm^2 will produce the best results. Every test should include a blank with a full medium but no cells. Cultures should be moved from the incubator into a sterile workspace, such as a laminar flow hood. Each MTT [M-5655] vial should be reconstituted with 3 mL of medium or balanced salt solution devoid of phenol red and serum. 10% of the volume of the culture medium should be added to the reconstituted MTT solution. Incubate cultures again for 2–4 h, depending on the type of cell and the maximal cell density. […] After the incubation period, remove the cultures from the incubator and apply MTT Solubilization Solution [M-8910] in a quantity equal to the volume of the original culture media to dissolve the formazan crystals that formed. In a gyratory shaker, gentle blending will improve solubility. Trituration, or pipetting up and down, may occasionally be necessary to completely dissolve the MTT formazan crystals, especially in thick cultures at a wavelength of 450 nm, and measure the absorbance spectrophotometrically. The background absorbance of multiwell plates at 690 nm were subtracted from 450 nm data. A suitable plate 7. Incubate cultures at 37°C for 24 hrs. 8-After treatment of cells with the serial concentrations of the compound to be tested incubation is carried out for 48 h at 37 °C ,then the plates are to be examined under the inverted microscope and proceed for the MTT assay MTT – Cytotoxicity assay protocol The MTT method of monitoring in vitro cytotoxicity is well suited for use with multiwell plates. For best results, cells in the log phase of growth should be employed and final cell number should not exceed 10^6 cells/cm2. Each test should include a blank containing complete medium without cells. 1. Remove cultures from incubator into laminar flow hood or other sterile work area.

SMILES	CC50 at 48 h
CCn1cc(-c2nc3ccccc3s2)c(=O)c2cc(F)c(N3CCNCC3)cc21 [compound 15, 3-(Benzo[d]thiazol-2-yl)-1-ethyl-6-fluoro-7-(piperazin-1-yl)quinolin-4(1H)-one]	39.2 µM
CCn1cc(C(=O)O)c(=O)c2cc(F)c(N3CCN(C(=O)CC#N)CC3)cc21 [compound 6]	34.1 µM
CCn1cc(-c2nc3ccccc3s2)c(=O)c2cc(F)c(N3CCN(C(=O)CCl)CC3)cc21 [compound 16, 3-(Benzo[d]thiazol-2-yl)-7-(4-(2-chloroacetyl)piperazin-1-yl)-1-ethyl-6-fluoroquinolin-4(1H)-one]	51.2 µM
COc1cccc2c1C(=O)c1c(O)c3c(c(O)c1C2=O)C[C@@](O)(C(=O)CO)C[C@@H]3O[C@H]1C[C@H](N)[C@H](O)[C@H](C)O1 [Doxorubicin]	14.1 µM
CCOC(=O)N1CCN(c2cc3c(cc2F)c(=O)c(C(=O)O)cn3CC)CC1 [compound 7, 7-(4-(Ethoxycarbonyl)piperazin-1-yl)-1-ethyl-6-fluoro-4-oxo-1,4-dihydroquinolin-3-carboxylic acid]	47.9 µM
CCn1cc(C(=O)O)c(=O)c2cc(F)c(N3CCNCC3)cc21 [compound 1, norfloxacin]	54.6 µM
